Patent publication US7157570B2, “Human ribonucleotide reductase M2 subunit” (priority 2002, dated 2007)

Assays:
human RR = biological target: T1, human RR (Homo sapiens, UniProt P23921); test: inhibition of human RR activity by C-terminal RRM2 peptide added to the enzyme in vitro; format: biochemical
T1 sequence (P23921 1-792): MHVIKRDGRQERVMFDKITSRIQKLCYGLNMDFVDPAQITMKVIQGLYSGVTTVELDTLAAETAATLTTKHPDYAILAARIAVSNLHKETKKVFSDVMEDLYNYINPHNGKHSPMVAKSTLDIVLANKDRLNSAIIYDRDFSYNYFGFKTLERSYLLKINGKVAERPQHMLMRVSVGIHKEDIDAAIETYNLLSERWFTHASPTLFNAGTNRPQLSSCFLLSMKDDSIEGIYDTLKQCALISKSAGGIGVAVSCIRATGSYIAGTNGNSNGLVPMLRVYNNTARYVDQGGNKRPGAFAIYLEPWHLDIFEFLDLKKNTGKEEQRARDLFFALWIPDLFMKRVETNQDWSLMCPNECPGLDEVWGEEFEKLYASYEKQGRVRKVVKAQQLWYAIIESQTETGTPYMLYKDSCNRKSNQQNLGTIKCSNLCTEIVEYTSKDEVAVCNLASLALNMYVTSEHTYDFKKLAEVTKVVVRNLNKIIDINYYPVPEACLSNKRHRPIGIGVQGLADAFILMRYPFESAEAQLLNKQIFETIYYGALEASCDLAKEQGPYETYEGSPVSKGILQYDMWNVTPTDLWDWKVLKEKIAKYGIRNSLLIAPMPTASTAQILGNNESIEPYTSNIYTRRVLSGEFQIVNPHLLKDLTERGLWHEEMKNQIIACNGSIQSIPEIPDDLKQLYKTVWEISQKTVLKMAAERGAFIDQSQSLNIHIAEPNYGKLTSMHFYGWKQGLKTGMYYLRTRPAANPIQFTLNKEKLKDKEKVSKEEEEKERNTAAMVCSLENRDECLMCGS
From the text: Other compounds that can be used to inhibit RRM1 and RRM2 or RRM1 and p53R2 interaction include a peptide or polypeptide containing an amino acid sequence at the C-terminus of RRM2. […] It was further observed that a truncated form of the M2 subunit, lacking these 7 amino acids at the C-terminus, fails to form a complex with the corresponding large subunit M1. […] Thus, methods of treating a cell proliferation-associated disorder using the peptide of SEQ ID NO:5 or its functional equivalents are within the scope of the invention. Peptides or polypeptides that are functionally equivalent to SEQ ID NO:5 can be either longer or shorter than SEQ ID NO:5, or contain substitute amino acids within SEQ ID NO:5, as long as they are capable of inhibiting the interaction between RRM1 and RRM2 or RRM1 and p53R2. Such peptides or polypeptides can be generated and used according to the methods described above or any other methods well known in the art.

RR activity in KB cells = biological target: T2, RR activity in KB cells (Homo sapiens, UniProt P31350); test: in vivo RR activity assay (permeabilized cells); format: cell-based; conditions: 0.1 mM HU
T2 construct: endogenous in cells; host or cells: KB cells (human oropharyngeal carcinoma), permeabilized with lysolecithin
T2 sequence (P31350 1-389): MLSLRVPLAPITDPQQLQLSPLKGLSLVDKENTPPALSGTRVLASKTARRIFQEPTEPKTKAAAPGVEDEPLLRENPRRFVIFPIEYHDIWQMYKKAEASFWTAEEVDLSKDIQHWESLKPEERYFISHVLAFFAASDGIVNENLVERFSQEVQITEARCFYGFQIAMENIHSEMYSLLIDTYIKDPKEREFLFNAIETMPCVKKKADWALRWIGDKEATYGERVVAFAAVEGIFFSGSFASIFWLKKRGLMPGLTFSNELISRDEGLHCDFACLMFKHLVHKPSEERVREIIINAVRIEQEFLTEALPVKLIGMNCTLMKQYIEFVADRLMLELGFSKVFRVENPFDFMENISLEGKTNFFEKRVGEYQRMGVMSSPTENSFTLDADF
Experimental: […] cells were plated in duplicate in 60-mm dishes. Cells were treated with 0.1 mM HU and harvested at the indicated time points. To permeabilize the cells, they were washed twice in Solution A (150 mM sucrose, 80 mM KCL, 35 mM HEPES, pH 7.4, 5 mM potassium phosphate, pH 7.4, 5 mM MgCl2, 0.5 mM CaCl2), resuspended in 500 μl of cold Solution A containing 0.25 mg/ml lysolecithin, and incubated for 1 minute at 4° C. To measure the activity of ribonucleoside diphosphate reduction and DNA synthesis, 1×10^6 permeabilized cells were incubated at 37° C. for 10 minutes in 300 μl of 50 mM HEPES, pH 7.4, 10 mM MgCl2, 8 mM dithiothreitol, 0.06 mM FeCl3, 7.5 mM potassium phosphate, pH 7.4, 0.75 mM CaCl2, 10 mM phosphoenolpyruvate, 0.2 mM ^3H-rCDP, 0.2 mM rGDP, 0.2 mM rADP, 0.2 mM dTDP. Following incubation, 150 μl of the suspension mixture was taken out, resulting in two samples, and mixed with 30 μl of 60% perchloric acid/0.1% sodium pyrophosphate. After a 15-minute incubation on ice, 1 ml ddH2O was added to dilute the mixture and then it was centrifuged to precipitate any acid-insoluble material. Pellets were extracted with 0.1 ml 0.2 N NaOH and incubated at 37° C. for 30 minutes.
An in vivo RR activity assay was performed at the same time points as above described. […] The results are consistent with the observed levels of hRRM2 mRNA and protein expression.

KB cells [1] = test: colony-forming assay; format: cell-based, human; conditions: drug alone (0.1 mM HU or 0.3 μM Gem)
[2] = system: hRRM2 protein in KB cells; test: Western blot of hRRM2 protein after exposure to HU; format: cell-based, human; conditions: 0.1 mM HU, 4-hour point
DNA of KB cells = conditions: any HU treatment schedule (control)
hRRM2 mRNA in KB cells = test: Northern blot of hRRM2 mRNA after exposure to HU; format: cell-based, human; conditions: 0.1 mM HU
KB cells [3] = test: cell cycle analysis by flow cytometry; format: cell-based, human; conditions: 4 to 8 hours of exposure to HU
Experimental: The cell cycle analysis was performed at flowcytometry core facility of City of Hope National Medical Center. The percent of cells in each phase of the cell cycle was analyzed by ModFit software. The protocol was summarized as below. Cells were trypsinized, washed twice with PBS, and resuspended in 1 ml PBS. 7 ml 0.5 M citric acid buffer (pH 2.35) was added and samples were stored overnight at room temperature in the dark. On the second day, the cells were placed at 4° C. in a dark environment. On the third day, cells were spun down, resuspended in citric acid buffer (pH 4.5) and adjusted to a concentration of 1×10^6 cells/ml. On the following day, the cells were spun down and resuspended in 1 ml BSA-H (0.1% BSA in PBS buffer). 150 μg RNase A (DNase free) was added to the solution and cells were incubated at 37° C. for 30 minutes. The cells were washed once with BSA-H and the pellet was resuspended in 1 ml 100 μg/ml propidium iodine (PI) and stored overnight at room temperature in the dark. On the following day, cells were analyzed by flowcytometry (Gao et al. (1998) Biochem Pharmaco 56, 105–112).
To further examine the time- and sequence-dependent interaction between HU and Gem, the effect of HU on cell cycle was studied. […] As Gem function requires DNA synthesis, the increased percent of cells in S-phase after 4 to 8 hours after exposure to HU is likely to augment its function.

KBHURs clone = conditions: cited from earlier work
[4] = system: intracellular dNTP pools in KB cells; test: dNTP pool assay; format: cell-based, human
Experimental: After treatment at designated time points with HU and/or Gem, cells were trypsinized, washed with PBS and viable cells were counted by Trypan Blue dye exclusion. Cells were transferred to 1.5 ml Eppendorf tubes and pelleted by brief centrifugation. Cell pellets were mixed with 100 μl 15% trichloroacetic acid and kept on ice for 10 minutes. It was then centrifuged for 5 minutes and the supernatant collected. dNTPs were extracted with two 50 μl aliquots of freon/trioctylamine (55%:45%). After each centrifugation, the supernatant was saved. 5 μl aliquots of each sample were used to check dATP, dCTP, dGTP, and dTTP concentrations. Each measurement was performed in duplicate (Zhou et al. (1998) Biochem Pharmaco 55, 1657–1665).
The reaction mixture contained 50 mM Tris-HCl (pH 7.5), 10 mM MgCl2, 5 mM DTT, 0.25 μM template/primer, 1.25 μM ^3H-dATP (for dCTP, dGTP, and dTTP assays) or ^3H-dTTP (for dATP assay), and 0.2 units of Sequenase (2.0) in a total volume of 50 μl. DNA synthesis was allowed to proceed for twenty minutes at room temperature and then the reaction was stopped and 40 μl of the reaction mixture was spotted onto Whatman DE81 ion exchange paper (2.4 cm diameter). The paper was dried, washed with 5% Na2HPO4 (3×10 min.), and rinsed once with distilled water and once with 95% ethanol. Samples were counted in a liquid scintillation counter and compared to standard samples prepared in the presence of 0.25, 0.5, and 1.0 pmol/μl of each dNTP.
To evaluate the effect of HU on dNTP pools in KB cells, each dNTP pool was measured as described in the Materials and Methods. dATP and dCTP were the most susceptible of the four dNTP pools to inhibition by HU. A decrease in these intracellular pools commenced after 1 hour of exposure to HU. The decline continued, with the dCTP pool reaching a nadir of approximately 15% of the control at 4 hours. The dATP pool reached a nadir after 8 hours. In a second phase, between 8 and 24 hours after exposure to HU, the dATP and dCTP pools slowly recovered to about 80% of their starting level. […] The decline and recovery of the dCTP and dATP pools paralleled the results of the colony-forming study. The initial drop in hRRM2 mRNA and protein, observed after 2–4 hours of HU exposure, could contribute to the rapid decline in dCTP and dATP pools seen after 4 hrs, while the subsequent overexpression of hRRM2 mRNA and protein would provide the needed activity to allow gradual recovery of the levels of dCTP and dATP.

[5] = biological target: T3, ribonucleotide reductase M1 subunit (RRM1) (human, UniProt P23921 1-792, limits assumed); test: complex formation assay (method not described)
T3 construct: For the truncation experiment it says only 'the corresponding large subunit M1'; The construct is not described; also called large subunit M1
T3 sequence (looked up): T1 sequence (P23921 1-792)

FTLDADF (synthetically generated peptide)
suppression of human RR activity (human RR; added to the enzyme in vitro at ratio 10:1 (peptide:enzyme)): dramatically suppress
inhibition of RR activity compared with RR inhibitors hydroxyurea and triapine (human RR; in vitro): superior

NC(=O)NO [HU, hydroxyurea]
RR activity (RR activity in KB cells; 8-hour point): recovered to the level of the control
RR activity, % of the control (RR activity in KB cells; 4 hours): 60%
colony formation, % of untreated controls (KB cells [1]): approximately 50%
hRRM2 protein expression [2]: decrease
incorporation of 3H-labeled CDP into DNA (DNA of KB cells): did not vary significantly
decrease of hRRM2 mRNA relative to untreated sample (hRRM2 mRNA in KB cells; 2 hours): 20%
hRRM2 mRNA, % of control levels (hRRM2 mRNA in KB cells; 4 hours): 60%
percentage of cells in G1 (KB cells [3]): remained stable
percentage of cells in G2/M (KB cells [3]): declined
percentage of cells in S-phase (KB cells [3]): approximately doubled
increase in resistance to HU over KBwt cells (KBHURs clone): 15 fold
dTTP and dGTP pools over time ([4]; HU exposure): did not vary significantly
time at which dATP pool reached a nadir ([4]; HU exposure): 8 h
dCTP pool nadir, % of the control ([4]; HU, 4 hours): approximately 15%
dATP and dCTP pools, % of starting level after recovery ([4]; between 8 and 24 hours after exposure to HU): about 80%

B1: truncated form of the M2 subunit, lacking the 7 amino acids at the C-terminus (enzyme, human, UniProt P31350 1-382, looked up)
chain: MLSLRVPLAPITDPQQLQLSPLKGLSLVDKENTPPALSGTRVLASKTARRIFQEPTEPKTKAAAPGVEDEPLLRENPRRFVIFPIEYHDIWQMYKKAEASFWTAEEVDLSKDIQHWESLKPEERYFISHVLAFFAASDGIVNENLVERFSQEVQITEARCFYGFQIAMENIHSEMYSLLIDTYIKDPKEREFLFNAIETMPCVKKKADWALRWIGDKEATYGERVVAFAAVEGIFFSGSFASIFWLKKRGLMPGLTFSNELISRDEGLHCDFACLMFKHLVHKPSEERVREIIINAVRIEQEFLTEALPVKLIGMNCTLMKQYIEFVADRLMLELGFSKVFRVENPFDFMENISLEGKTNFFEKRVGEYQRMGVMSSPTENS
notes: domain: truncated form lacking the 7 amino acids at the C-terminus; To build it, delete the last 7 residues (FTLDADF) of RRM2; also called truncated M2
binding result [5]: no binding
